Experimental data reported in the supplement of paper PMC10307832.

Key:
Assay in all cases: relative viability (nuclei count vs DMSO), 5 days (fraction); higher = more cells survive
[1] = compound: CCN(CC)CCNC(=O)c1c(C)[nH]c(/C=C2\C(=O)Nc3ccc(F)cc32)c1C [Sunitinib] + Cc1nc(Nc2ncc(C(=O)Nc3c(C)cccc3Cl)s2)cc(N2CCN(CCO)CC2)n1 [Dasatinib] (partner 0.075 µM)
Outline: (§1)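 Each reported value is a median over duplicate plates. It expresses relative viability: treated-well nuclei count divided by vehicle-well nuclei count. Lung cancer cell lines in 1536-well plates were dosed by pin tool a day after seeding, alone with one drug or with a fixed anchor-drug dose plus five library-drug doses (not always all listed) in √10 steps, and nuclei were counted after 5 days.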

[2] = compound: CCN(CC)CCNC(=O)c1c(C)[nH]c(/C=C2\C(=O)Nc3ccc(F)cc32)c1C [Sunitinib] + CC(=O)c1c(C)c2cnc(Nc3ccc(N4CCNCC4)cn3)nc2n(C2CCCC2)c1=O [Palbociclib] (partner 0.5 µM)
Outline: as §1

[3] = compound: CCN(CC)CCNC(=O)c1c(C)[nH]c(/C=C2\C(=O)Nc3ccc(F)cc32)c1C [Sunitinib] + CC(C)C[C@H](NC(=O)[C@H](Cc1ccccc1)NC(=O)c1cnccn1)B(O)O [Bortezomib] (partner 0.002 µM)
Outline: as §1

[4] = compound: CCN(CC)CCNC(=O)c1c(C)[nH]c(/C=C2\C(=O)Nc3ccc(F)cc32)c1C [Sunitinib] + CCNC(=O)c1noc(-c2cc(C(C)C)c(O)cc2O)c1-c1ccc(CN2CCOCC2)cc1 [Luminespib] (partner 0.01 µM)
Outline: as §1

| Cell Line | relative viability ([1]; first compound 0.02 µM) | relative viability ([1]; first compound 0.06325 µM) | relative viability ([1]; first compound 0.2 µM) | relative viability ([1]; first compound 0.6325 µM) | relative viability ([1]; first compound 2 µM) | relative viability ([2]; first compound 0.02 µM) | relative viability ([2]; first compound 0.06325 µM) | relative viability ([2]; first compound 0.2 µM) | relative viability ([2]; first compound 0.6325 µM) | relative viability ([2]; first compound 2 µM) | relative viability ([3]; first compound 0.02 µM) | relative viability ([3]; first compound 0.06325 µM) | relative viability ([3]; first compound 0.2 µM) | relative viability ([3]; first compound 0.6325 µM) | relative viability ([3]; first compound 2 µM) | relative viability ([4]; first compound 0.02 µM) | relative viability ([4]; first compound 0.06325 µM) | relative viability ([4]; first compound 0.2 µM) | relative viability ([4]; first compound 0.6325 µM) | relative viability ([4]; first compound 2 µM) |
| --- | --- | --- | --- | --- | --- | --- | --- | --- | --- | --- | --- | --- | --- | --- | --- | --- | --- | --- | --- | --- |
| COR-L 105 | 0.316 | 0.361 | 0.286 | 0.379 | 0.543 | 0.431 | 0.399 | 0.436 | 0.405 | 0.458 | 0.977 | 0.877 | 0.923 | 1.01 | 0.823 | 0.665 | 0.706 | 0.744 | 0.914 | 0.686 |
| H3255 | 0.455 | 0.379 | 0.418 | 0.336 | 0.381 | 0.313 | 0.299 | 0.302 | 0.311 | 0.331 | 0.817 |  | 0.827 | 0.995 | 0.822 | 0.944 | 1.03 |  | 1.05 | 0.952 |
| LCLC-97TM1 | 0.918 | 0.904 | 0.914 | 0.911 | 0.793 | 0.209 | 0.268 | 0.279 | 0.229 | 0.231 | 0.653 | 0.967 | 0.713 | 0.774 | 0.757 | 0.597 | 0.743 |  | 0.794 | 0.772 |
| NCI-H460 | 0.471 | 0.631 | 0.676 | 0.602 | 0.444 | 0.157 | 0.189 | 0.124 | 0.226 | 0.171 | 1.18 | 1.23 | 1.5 | 1.35 | 1.09 | 0.0352 | 0.0388 | 0.0351 | 0.0528 | 0.0318 |
| A-427 | 0.66 | 0.641 | 0.787 | 0.723 | 0.692 | 0.508 | 0.544 | 0.568 | 0.545 | 0.546 |  | 0.987 | 0.976 | 0.986 | 0.936 | 0.923 | 1.08 | 1.13 |  | 0.903 |
| HCC-15 | 0.549 | 0.709 | 0.726 | 0.66 | 0.598 | 0.707 | 0.737 | 0.792 | 0.696 | 0.715 | 0.941 | 1.16 | 1.17 | 1.02 | 1.05 | 0.251 | 0.278 | 0.347 | 0.255 | 0.227 |
| NCI-H1650 | 0.321 | 0.337 | 0.309 | 0.358 | 0.268 | 0.359 | 0.472 | 0.384 | 0.392 | 0.33 | 0.194 | 0.226 | 0.192 | 0.203 | 0.211 | 0.219 | 0.201 | 0.206 | 0.198 | 0.217 |
| NCI-H2347 | 0.255 | 0.292 | 0.302 | 0.257 | 0.394 | 0.454 | 0.43 | 0.453 | 0.422 | 0.472 | 0.853 | 1.21 | 1.1 |  | 1.11 | 0.486 | 0.355 | 0.377 | 0.238 | 0.558 |
| NCI-H650 | 0.491 | 0.523 | 0.41 | 0.533 | 0.476 | 0.298 | 0.338 | 0.308 | 0.355 | 0.396 | 0.884 | 0.819 | 0.916 | 1.03 | 1.09 | 0.914 | 0.83 | 0.766 | 0.803 | 0.716 |
| NCI-H2087 | 0.717 | 1.25 | 1 | 0.945 | 0.669 | 0.27 | 0.266 | 0.25 | 0.28 | 0.255 | 0.855 | 0.793 | 0.966 | 0.994 | 1.04 | 0.195 | 0.172 | 0.166 | 0.158 | 0.174 |
